Values joined by “and” are separate entries in the source; they are usually repeats but may differ in a detail not shown here. Identical values can stand only once. Inconclusive results and toxic doses are left out. Cut-off read from the data, not from the text of the source: active = T/C of 150% or more; inactive = T/C below 125%.
Test system: L1210 leukemia ip in BDF1 mice, survival T/C
Experiment: NCI In Vivo Anticancer Drug Screen. Data for tumor model L1210 Leukemia (intraperitoneal) in B6D2F1 (BDF1) mice
Conditions: endpoint: mean survival time, higher = longer survival
Method in brief: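 Ratio derived from survival: compound-dosed mice over vehicle-dosed mice, all bearing a transplantable tumor.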

[1] = dose: 100.0 mg/kg/injection, schedule: Q01DX009 (ip), vehicle: Klucel (hydroxypropylcellulose) (HPC)
[2] = dose: 100.0 mg/kg/injection, schedule: Q04DX003 (ip), vehicle: Klucel (hydroxypropylcellulose) (HPC)
[3] = dose: 200.0 mg/kg/injection, schedule: Q01DX009 (ip), vehicle: Klucel (hydroxypropylcellulose) (HPC)
[4] = dose: 200.0 mg/kg/injection, schedule: Q04DX003 (ip), vehicle: Klucel (hydroxypropylcellulose) (HPC)
[5] = dose: 400.0 mg/kg/injection, schedule: Q04DX003 (ip), vehicle: Klucel (hydroxypropylcellulose) (HPC)
[6] = dose: 100.0 mg/kg/injection, schedule: Q04DX003 (ip), vehicle: saline with Tween-80
[7] = dose: 200.0 mg/kg/injection, schedule: Q04DX003 (ip), vehicle: saline with Tween-80
[8] = dose: 400.0 mg/kg/injection, schedule: Q04DX003 (ip), vehicle: saline with Tween-80
[9] = dose: 400.0 mg/kg/injection, schedule: Q01DX009 (ip), vehicle: Klucel (hydroxypropylcellulose) (HPC)
[10] = dose: 100.0 mg/kg/injection, schedule: Q04DX003 (ip), vehicle: saline
[11] = dose: 200.0 mg/kg/injection, schedule: Q04DX003 (ip), vehicle: saline
[12] = dose: 400.0 mg/kg/injection, schedule: Q04DX003 (ip), vehicle: saline
[13] = dose: 100.0 mg/kg/injection, schedule: Q01DX001 (ip), vehicle: saline
[14] = dose: 200.0 mg/kg/injection, schedule: Q01DX001 (ip), vehicle: saline
[15] = dose: 400.0 mg/kg/injection, schedule: Q01DX001 (ip), vehicle: saline
[16] = dose: 50.0 mg/kg/injection, schedule: Q01DX001 (ip), vehicle: saline
[17] = dose: 100.0 mg/kg/injection, schedule: Q01DX001 (ip), vehicle: carboxymethylcellulose (CMC)
[18] = dose: 200.0 mg/kg/injection, schedule: Q01DX001 (ip), vehicle: carboxymethylcellulose (CMC)
[19] = dose: 400.0 mg/kg/injection, schedule: Q01DX001 (ip), vehicle: carboxymethylcellulose (CMC)
[20] = dose: 50.0 mg/kg/injection, schedule: Q01DX009 (ip), vehicle: saline
[21] = dose: 100.0 mg/kg/injection, schedule: Q01DX009 (ip), vehicle: saline

Measured: T/C

CCC1(c2ccccc2)NC(=O)N(C)C1=O (stereo not given)
inactive: [1] 97 % of control | [2] 100 % of control | [3] 110 % of control | [4] 95 % of control | [5] 90 % of control

CCCCCCCCCCCCCCCC[N+](C)=C(SC)c1ccccc1OC
inactive: dose: 0.7 mg/kg/injection, schedule: Q01DX009 (ip), vehicle: Klucel (hydroxypropylcellulose) (HPC) 101 % of control | dose: 1.5 mg/kg/injection, schedule: Q01DX009 (ip), vehicle: Klucel (hydroxypropylcellulose) (HPC) 104 % of control | dose: 1.5 mg/kg/injection, schedule: Q04DX003 (ip), vehicle: Klucel (hydroxypropylcellulose) (HPC) 95 % of control | dose: 3.0 mg/kg/injection, schedule: Q01DX009 (ip), vehicle: Klucel (hydroxypropylcellulose) (HPC) 104 % of control | dose: 3.0 mg/kg/injection, schedule: Q04DX003 (ip), vehicle: Klucel (hydroxypropylcellulose) (HPC) 97 % of control

OC(CBr)c1ccc(Cl)cc1 (stereo not given)
inactive: dose: 100.0 mg/kg/injection, schedule: Q01DX009 (ip), vehicle: saline with Tween-80 96 % of control | [6] 98 % of control | dose: 200.0 mg/kg/injection, schedule: Q01DX009 (ip), vehicle: saline with Tween-80 96 % of control | [7] 104 % of control | [8] 89 % of control

Cc1cc(Cl)ccc1OC(=O)Nc1cccc(Cl)c1Cl
inactive: [1] 102 % of control | [3] 89 % of control | [9] 94 % of control

COc1cc(C)c(O)c(C)c1C
inactive: [6] 95 % of control | [7] 95 % of control | [8] 95 % of control

O=C1CCC(=O)N1C1c2ccccc2Oc2ccccc21
inactive: [10] 95 % of control | [11] 95 % of control | [12] 90 % of control

CN(C(=O)COc1ccc([N+](=O)[O-])cc1Cl)c1ccc(S(=O)(=O)F)cc1
inactive: [10] 104 % of control | [11] 95 % of control | [12] 96 % of control

CONCC(=O)c1ccc(SC)cc1
inactive: [13] 106 % of control | [14] 97 % of control | [15] 100 % of control

CNc1c(Cl)n(C)c(=O)n(C)c1=O
inactive: [16] 101 % of control | [13] 101 % of control | [14] 104 % of control | [15] 101 % of control

C[n+]1c(/C=C/c2c[nH]c3ccccc23)ccc2ccccc21
inactive: dose: 5.0 mg/kg/injection, schedule: Q01DX001 (ip), vehicle: acetone 101 % of control | dose: 10.0 mg/kg/injection, schedule: Q01DX001 (ip), vehicle: acetone 102 % of control | dose: 20.0 mg/kg/injection, schedule: Q01DX001 (ip), vehicle: acetone 96 % of control | dose: 40.0 mg/kg/injection, schedule: Q01DX001 (ip), vehicle: acetone 107 % of control | dose: 80.0 mg/kg/injection, schedule: Q01DX001 (ip), vehicle: acetone 100 % of control

CCCCNC(=O)n1ncc2ccc([N+](=O)[O-])cc21
inactive: [13] 105 % of control | [14] 105 % of control | [15] 102 % of control

Cc1cccc(NC(=O)c2cccc(C(=O)Nc3cccc(C)c3C)c2)c1C
inactive: [1] 96 % of control | [2] 88 % of control | [3] 100 % of control | [4] 88 % of control | [9] 96 % of control | [5] 93 % of control

O=C(O)c1ccc([N+](=O)[O-])cc1O
inactive: [17] 101 % of control | dose: 100.0 mg/kg/injection, schedule: Q04DX002 (ip), vehicle: saline with Tween-80 95 % of control | [18] 97 % of control | dose: 200.0 mg/kg/injection, schedule: Q04DX002 (ip), vehicle: saline with Tween-80 98 % of control | dose: 400.0 mg/kg/injection, schedule: Q04DX002 (ip), vehicle: saline with Tween-80 102 % of control

Cc1cc(C)nc(SCC(=O)O)n1
inactive: dose: 50.0 mg/kg/injection, schedule: Q01DX001 (ip), vehicle: carboxymethylcellulose (CMC) 89 % of control | [17] 105 % of control | [18] 96 % of control | [19] 105 % of control

CCCNC1(C(=O)O)CCCc2ccccc21 (stereo not given)
inactive: [2] 100 % of control | [4] 100 % of control | [5] 102 % of control

CC(=O)NCC[CH2][Sn]([c]1ccccc1)([c]1ccccc1)[c]1ccccc1
inactive: [20] 100 % of control | [21] 100 % of control | dose: 200.0 mg/kg/injection, schedule: Q01DX009 (ip), vehicle: saline 110 % of control

c1ccc(Nc2ncc3cnccn23)cc1
inactive: dose: 25.0 mg/kg/injection, schedule: Q01DX009 (ip), vehicle: saline 96 % of control | [20] 90 % of control | [21] 97 % of control

CC(C)c1nnnn1C12CC3CC(CC(C3)C1)C2
inactive: [13] 101 % of control | [14] 101 % of control | [15] 93 % of control

Nc1nc(N)nc(CCP(CCc2nc(N)nc(N)n2)CCc2nc(N)nc(N)n2)n1
inactive: dose: 25.0 mg/kg/injection, schedule: Q01DX009 (ip), vehicle: Klucel (hydroxypropylcellulose) (HPC) 110 % of control | dose: 50.0 mg/kg/injection, schedule: Q01DX009 (ip), vehicle: Klucel (hydroxypropylcellulose) (HPC) 108 % of control | [1] 104 % of control | [2] 110 % of control and 113 % of control | [4] 98 % of control and 100 % of control | [5] 101 % of control

COc1ccc(CCNC(=O)Cc2ccc([N+](=O)[O-])cc2)cc1OC
inactive: [17] 89 % of control | [18] 98 % of control | [19] 93 % of control

Cc1ccc(S(=O)(=O)NCCCCCC(=O)O)cc1
inactive: [1] 101 % of control | [2] 98 % of control | [3] 101 % of control | [4] 94 % of control | [9] 100 % of control | [5] 96 % of control

Oc1ccc2c(c1)Cc1cc3ccccc3nc1-2
inactive: [16] 98 % of control | [13] 95 % of control | [14] 97 % of control | [15] 93 % of control

C=C1c2[nH]c3ccccc3c2C2C(CC)C1CCN2C (stereo not given)
inactive: dose: 30.0 mg/kg/injection, schedule: Q01DX Z (ip), vehicle: olive oil, sesame oil, peanut oil 102 % of control | dose: 50.0 mg/kg/injection, schedule: Q01DX Z (ip), vehicle: olive oil, sesame oil, peanut oil 98 % of control

CN1C2CC(=O)CC1C1CCC2C1
inactive: dose: 15.0 mg/kg/injection, schedule: Q01DX001 (ip), vehicle: carboxymethylcellulose (CMC) 103 % of control | dose: 30.0 mg/kg/injection, schedule: Q01DX001 (ip), vehicle: carboxymethylcellulose (CMC) 101 % of control

O=[N+]([O-])c1ccc(N/N=C(\Cc2ccccc2)c2ccccc2)c([N+](=O)[O-])c1
inactive: [6] 91 % of control | [7] 91 % of control | [8] 87 % of control

From PubChem BioAssay AID248 (DTP/NCI, 2004)
